Key:
[1] = Skin irritativeness, SPI value (skin irritation value of epoxy); conditions: for Toxicity Skin Irritativeness (SPI · %): ingredient of the adhesive of Example 5, Table 1
[2] = Toxicity of adhesive ingredients, LD 50 (Table 1); assay type: in vivo; conditions: ingredient of the adhesive of Example 5, Table 1

| Compound | Toxicity Skin Irritativeness (SPI · %) [1] [SPI · %] | skin irritativeness ([1]; result in words) | Toxicity LD 50 [2] [mg/kg] |
| --- | --- | --- | --- |
| O=C1OC(=O)C2CC=CCC12 (stereo not shown) [alicyclic acid anhydride II, Tetrahydrophthalic anhydride] | 3 | low skin irritativeness | – |
| hydrogenated bisphenol A type epoxy [alicyclic epoxy] | 3 | – | 3900 |
